The results in this text go back to PMC8429736, “Pharmacological characterization of mutant huntingtin aggregate-directed PET imaging tracer candidates” (Scientific Reports, 2021).

A value given as a limit tells only on which side of the number the result lay.

The test system of experiment [1] is beta amyloid/tau aggregates in post-mortem AD patient brain homogenates. As to the kind of experiment: ADbh RBA competition format. It is filed as binding, human. The following applies: for displacement of bound 5: radioligand 5. How it is done:
(§1) For RBA in vitro binding assays, brain tissue was sliced (50 µm), weighed and homogenized in PBS (Gibco, 14190-94), 0.1% BSA with a glass pestle (10 strokes) at a concentration of 12–15 mg wet tissue per mL buffer. The crude homogenate concentration was then adjusted to 10 mg/mL (wet tissue) and stored as single-use aliquots at -80 °C.
RBA experiments using Alzheimer’s disease brain homogenates (ADbh RBA) followed the same assay principle as the RBA with recombinant HTT protein, using 0.68 mg/mL homogenate (100 µg per well with 150 µL assay volume) in assay buffer PBS, 0.01% Pluronic F127 (Sigma. P2443) and 1% DMSO after compound addition. […] Incubation at room temperature was conducted for 20 min after compound addition and for 5 h after radioligand addition. For the competition format, raw cpm were normalized towards assay controls as before, to obtain inhibition between 0 and 100%. For saturation binding, raw cpm were converted into nM as before, using a calibration line of total added radioligand, and normalized to mg of added homogenate to finally obtain pmol/mg.

For experiment [2], the target named is phospho-Tau tangles (AT8 antibody) (Homo sapiens, UniProt P10636). Kind of experiment: HR ARG co-registration with AT8 antibody, human AD brain sections. It is filed as binding. The following applies: 10 nM CHDI-180, 10 nM CHDI-626, 0.1 nM PiB, 1 nM T808.
Sequence of phospho-Tau tangles (AT8 antibody) (P10636 623-695 limits assumed): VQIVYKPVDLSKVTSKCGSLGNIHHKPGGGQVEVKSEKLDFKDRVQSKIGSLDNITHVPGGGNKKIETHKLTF
The subject of experiment [3] is beta amyloid/tau aggregates in post-mortem AD patient brain homogenates. As to the kind of experiment: ADbh RBA saturation (direct) binding. On the set-up: species or system human. To be noted: 100 µg homogenate per well. How it is done: as §1
RBA experiments using Alzheimer’s disease brain homogenates (ADbh RBA) followed the same assay principle as the RBA with recombinant HTT protein, using 0.68 mg/mL homogenate (100 µg per well with 150 µL assay volume) in assay buffer PBS, 0.01% Pluronic F127 (Sigma. P2443) and 1% DMSO after compound addition. Competition experiments were conducted with 0.5 nM radioligand 4 and 50 µg homogenate per well. Incubation at room temperature was conducted for 20 min after compound addition and for 5 h after radioligand addition. For the competition format, raw cpm were normalized towards assay controls as before, to obtain inhibition between 0 and 100%. For saturation binding, raw cpm were converted into nM as before, using a calibration line of total added radioligand, and normalized to mg of added homogenate to finally obtain pmol/mg.

Experiment [4] deals with beta amyloid plaques (6E10 antibody) (Homo sapiens, UniProt P05067). As to the kind of experiment: HR ARG co-registration with 6E10 antibody, human AD brain sections. The following applies: 10 nM CHDI-180, 10 nM CHDI-626, 0.1 nM PiB, 1 nM T808. It is filed as binding.
Sequence of beta amyloid plaques (6E10 antibody) (P05067 672-713 limits assumed): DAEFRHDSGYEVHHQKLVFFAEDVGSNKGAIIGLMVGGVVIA
The next experiment has as its target T1, Exon1-Q46 aggregates (Homo sapiens, UniProt P42858, INS38QQQQQQQQQQQQQQQQQQQQQQQQQ).
T1 construct: MBP-HTT(1-89)Q46-His(6x); MBP (N, cleaved yes); made in house; host or cells: E. coli BL21 (DE3)
Kind of experiment: RBA competition binding against tritiated 3, Exon1-Q46 aggregates. The following applies: 0.3 nM tritiated 3 as radioligand; 1 µM aggregates; mean ± SD; read-out: IC50 Exon1-Q46. How it is done: (§2) For the competition assay format, Q46 or Exon1-Q46 aggregates at 1 µM (sample volume 150 µL) were pre-incubated in a 96-well round bottom plate (Corning, #3365) for 20 min with test compounds at room temperature (assay buffer 50 mM Tris–HCl pH 8.0, 150 mM NaCl). […] Radioligand 3 at 0.3 nM was added and incubated for 1 h at 37 °C.
(§3) Samples were then transferred onto a 96-well GF/B filter plate (Perkin Elmer, #6005177) using a Filtermate Harvester, aspirated by vacuum and wells washed twice with 200 µL PBS. After drying the filter plates for 1 h at 55 °C the back of the plate was sealed with aluminum cover and 30 µL of scintillation fluid (Perkin Elmer, #6013641) per well was added. The tops of the plates were sealed, and the plates were incubated for 15 min in the dark and counted in a TopCount or MicroBeta2 reader (both Perkin Elmer).
(§4) Raw sample data collected as counts per minute (cpm) were normalized towards assay controls: 0% inhibition = radioligand + protein + vehicle, 100% inhibition = radioligand + protein + 1 µM unlabeled ligand. A 4-parameter […] fit was applied to generate IC50 values.

For the next experiment, the target named is Q46 aggregates. As to the kind of experiment: RBA competition binding against tritiated 3, Q46 aggregates. The following applies: 0.3 nM tritiated 3 as radioligand; 1 µM aggregates; mean ± SD. How it is done:
as §2, §3, §4

T1 sequence (P42858 with tags, fused parts or gaps with the stated changes): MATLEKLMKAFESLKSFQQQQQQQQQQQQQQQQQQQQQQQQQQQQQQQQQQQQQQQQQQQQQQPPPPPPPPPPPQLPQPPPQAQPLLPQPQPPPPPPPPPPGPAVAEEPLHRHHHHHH

Consider `CNc1ccc(-c2nc3ccc(O)cc3s2)cc1F` [Flutemetamol], for which the “heterologous competition with radioligand 4” value (“heterologous competition” below) in experiment [1] (radioligand 4) is given as “complete displacement”. In addition, in experiment [1], the “displacement of bound 5” value was “complete displacement”.

Regarding `[11CH3]Nc1ccc(-c2nc3ccc(O)cc3s2)cc1` [PiB], the “co-registration with AT8-positive phospho-Tau immunoreactivity” value in experiment [2] was “not with AT8 immunoreactivity”. In experiment [1] (radioligand 4), the “heterologous competition” value is given as “complete displacement”. The “displacement of 4 at 0.1 µM” value in experiment [1] (radioligand 4, compound 0.1 µM) is given as “fully displace”. Further, the “displacement of bound 5” value in experiment [1] was “complete displacement”. Also, the “Bmax, AD brain homogenate” value in experiment [3] is 10.5 pmol/mg.

Take `FCCC1CCN(c2ccn3c(n2)nc2ccccc23)CC1` [Compound T808]: the “co-registration with AT8-positive phospho-Tau immunoreactivity” value in experiment [2] was “co-registered with AT8”. For the same compound, the “co-registration with 6E10-positive beta amyloid plaques” value in experiment [4] is “not with 6E10 antibody”. Moreover, the IC50 on Exon1-Q46 aggregates and at Q46 aggregates was above 333 nM each time. In addition, the “heterologous competition” value in experiment [1] (radioligand 4) is recorded as “could not compete”. In addition, the “displacement of bound 5” value in experiment [1] is ~ 50%.

On to `CNc1ccc(-c2nc3ccc(O)cc3s2)cc1` [PiB], for which the concentration for half-maximal inhibition (IC50) – broadly, the concentration that inhibits the measured activity by half – on Exon1-Q46 aggregates was 72.5 ± 0.4 nM; at Q46 aggregates, above 333 nM. Moreover, the affinity in experiment [3], expressed as Kd, was 3.4 nM.
